Results published in US20070196406A1, “1,3-Dimethylbutyl carboxanilides for controlling undesirable micro-organisms” (priority 2003, published 2007).

Tested on: not listed separately
Assay: logP determination by HPLC on a reversed-phase column (EEC Directive 79/831 Annex V.A8)
Format: physicochemical
Details: reversed-phase C18 HPLC column, pH 2.3, C 18 reversed phase, 43° C.
Method: The logP values given in the Preparation Examples and tables above are determined in accordance with EEC Directive 79/831 Annex V.A8 by HPLC (High Performance Liquid Chromatography) on a reversed-phase column (C 18). Temperature: 43° C.
The determination is carried out in the acidic range at pH 2.3 using the mobile phases 0.1% aqueous phosphoric acid and acetonitrile; linear gradient from 10% acetonitrile to 90% acetonitrile.
Calibration is carried out using unbranched alkan-2-ones (with 3 to 16 carbon atoms) with known logP values (determination of the logP values by the retention times using linear interpolation between two successive alkanones).
Compound `CC(C)CC(C)c1ccccc1NC(=O)c1cn(C)nc1C(Cl)Cl` (stereo not shown) [Example 1, 3-(dichloromethyl)-1-methyl-N-[2-(1,3-dimethylbutyl)phenyl]-1H-pyrazole-4-carboxamide] has a chromatographic logP of 3.74. `CC(C)CC(C)c1ccccc1NC(=O)c1cn(C)nc1C=O` (stereo not shown) [Example 2, N-[2-(1,3-dimethylbutyl)phenyl]-3-formyl-1-methyl-1H-pyrazole-4-carboxamide] gave a chromatographic logP of 3.64. With `COc1nc(C)sc1C(=O)Nc1ccccc1C(C)CC(C)C` (stereo not shown) [Example 3, N-[2-(1,3-dimethylbutyl)phenyl]-4-methoxy-2-methyl-1,3-thiazole-5-carboxamide] the chromatographic logP was 4.45. In the case of `Cc1nc(O)c(C(=O)Nc2ccccc2C(C)CC(C)C)s1` (stereo not shown) [Example 4, N-[2-(1,3-dimethylbutyl)phenyl]-4-hydroxy-2-methyl-1,3-thiazole-5-carboxamide], the chromatographic logP is reported as 2.68. In the case of `COC(=O)c1cn(C)nc1C=O` [Example X-1], the chromatographic logP is reported as 0.46. Compound `CCOC(=O)c1sc(C)nc1OC` [II-1] has a chromatographic logP of 1.9. Compound `COc1nc(C)sc1C(=O)O` [II-2] has a chromatographic logP of 0.77. In the case of `CCOC(=O)c1cn(C)nc1OC` [II-4], the chromatographic logP is reported as 1.14. `CCOC(=O)c1sc(C)nc1OC(F)F` [II-6] gave a chromatographic logP of 2.54. `Cc1nc(OC(F)F)c(C(=O)O)s1` [II-7] gave a chromatographic logP of 1.29. In the case of `Cn1cc(C(=O)O)c(C=O)n1` [XI-1], the chromatographic logP is reported as -0.19. `COC(=O)c1cn(C)nc1C(Cl)Cl` [XII-1] showed a chromatographic logP of 1.8.

Tested on: Podosphaera leucotricha
Assay: Podosphaera test (apple)/protective
Format: in vivo
Details: 240 h, apple plants, protective spray, evaluation 10 days after inoculation, read-out: Efficacy in %
Method: Podosphaera Test (Apple)/Protective
• Solvents: 24.5 parts by weight of acetone • 24.5 parts by weight of dimethylacetamide • Emulsifier: 1 part by weight of alklylaryl polyglycol ether
(§1) To produce a suitable preparation of active compound, 1 part by weight of active compound is mixed with the stated amounts of solvents and emulsifier, and the concentrate is diluted with water to the desired concentration.
To test for protective activity, young plants are sprayed with the preparation of active compound at the stated application rate. After the spray coating has dried on, the plants are inoculated with an aqueous spore suspension of the apple mildew pathogen Podosphaera leucotricha. The plants are then placed in a greenhouse at about 23° C. and a relative atmospheric humidity of about 70%.
(§2) Evaluation is carried out 10 days after the inoculation. 0% means an efficacy which corresponds to that of the control, whereas an efficacy of 100% means that no infection is observed.
With `CC(C)CC(C)c1ccccc1NC(=O)c1scnc1Cl` (stereo not shown) [drawing 82] the pest or weed control at 100 g/ha was 100%. For `Cc1sccc1C(=O)Nc1ccccc1C(C)CC(C)C` (stereo not shown) [drawing 83], the pest or weed control at 100 g/ha was 100%. With `CC(C)CC(C)c1ccccc1NC(=O)c1ccoc1C(F)(F)F` (stereo not shown) [drawing 84] the pest or weed control at 100 g/ha was 98%. For `CC(C)CC(C)c1ccccc1NC(=O)c1cn(C)nc1Cl` (stereo not shown) [drawing 85], the pest or weed control at 100 g/ha was 100%. For `CC(C)CC(C)c1ccccc1NC(=O)c1cn(C)nc1C(C)F` (stereo not shown) [drawing 86], the pest or weed control at 100 g/ha was 100%. For `CC(C)CC(C)c1cc(F)ccc1NC(=O)c1cn(C)nc1C(F)(F)F` (stereo not shown) [drawing 87], the pest or weed control at 100 g/ha was 88%. With `CC(C)CC(C)c1cc(F)ccc1NC(=O)c1cn(C)nc1C(F)F` (stereo not shown) [drawing 88] the pest or weed control at 100 g/ha was 100%. Compound `Cc1sccc1C(=O)Nc1ccc(F)cc1C(C)CC(C)C` (stereo not shown) [drawing 89] has a pest or weed control at 100 g/ha of 100%. In the case of `Cc1nc(C(F)(F)F)c(C(=O)Nc2ccc(F)cc2C(C)CC(C)C)s1` (stereo not shown) [drawing 90], the pest or weed control at 100 g/ha is reported as 100%. In the case of `Cc1ccsc1C(=O)Nc1ccc(F)cc1C(C)CC(C)C` (stereo not shown) [drawing 91], the pest or weed control at 100 g/ha is reported as 99%. `Cc1nc(C(F)F)c(C(=O)Nc2ccc(F)cc2C(C)CC(C)C)s1` (stereo not shown) [drawing 92] gave a pest or weed control at 100 g/ha of 100%. Compound `CC1=C(C(=O)Nc2ccc(F)cc2C(C)CC(C)C)SCCO1` (stereo not shown) [drawing 93] has a pest or weed control at 100 g/ha of 100%.

Tested on: Venturia inaequalis
Assay: Venturia test (apple)/protective
Format: in vivo
Details: 240 h, apple plants, protective spray, evaluation 10 days after inoculation, read-out: Efficacy in %
Method: Venturia Test (Apple)/Protective
(§3) • Solvents: 24.5 parts by weight of acetone • 24.5 parts by weight of dimethylacetamide • Emulsifier: 1 part by weight of alkylaryl polyglycol ether
as §1
To test for protective activity, young plants are sprayed with the preparation of active compound at the stated application rates. After the spray coating has dried on, the plants are inoculated with an aqueous conidia suspension of the apple scab pathogen Venturia inaequalis and then remain in an incubation cabinet about 20° C. and 100% relative atmospheric humidity for 1 day.
The plants are then placed in a greenhouse at about 21° C. and a relative atmospheric humidity of about 90%.
as §2
With `CC(C)CC(C)c1ccccc1NC(=O)c1scnc1Cl` (stereo not shown) [drawing 94] the pest or weed control at 100 g/ha was 99%. For `Cc1sccc1C(=O)Nc1ccccc1C(C)CC(C)C` (stereo not shown) [drawing 95], the pest or weed control at 100 g/ha was 100%. In the case of `CC(C)CC(C)c1ccccc1NC(=O)c1ccoc1C(F)(F)F` (stereo not shown) [drawing 96], the pest or weed control at 100 g/ha is reported as 96%. `CC(C)CC(C)c1ccccc1NC(=O)c1cn(C)nc1Cl` (stereo not shown) [drawing 97] showed a pest or weed control at 100 g/ha of 100%. For `CC(C)CC(C)c1ccccc1NC(=O)c1cn(C)nc1C(C)F` (stereo not shown) [drawing 98], the pest or weed control at 100 g/ha was 100%. `CC(C)CC(C)c1cc(F)ccc1NC(=O)c1cn(C)nc1C(F)(F)F` (stereo not shown) [drawing 99] gave a pest or weed control at 100 g/ha of 100%. In the case of `CC(C)CC(C)c1cc(F)ccc1NC(=O)c1cn(C)nc1C(F)F` (stereo not shown) [drawing 100], the pest or weed control at 100 g/ha is reported as 100%. `Cc1sccc1C(=O)Nc1ccc(F)cc1C(C)CC(C)C` (stereo not shown) [drawing 101] gave a pest or weed control at 100 g/ha of 94%. For `Cc1nc(C(F)(F)F)c(C(=O)Nc2ccc(F)cc2C(C)CC(C)C)s1` (stereo not shown) [drawing 102], the pest or weed control at 100 g/ha was 100%. In the case of `Cc1ccsc1C(=O)Nc1ccc(F)cc1C(C)CC(C)C` (stereo not shown) [drawing 103], the pest or weed control at 100 g/ha is reported as 100%. `Cc1nc(C(F)F)c(C(=O)Nc2ccc(F)cc2C(C)CC(C)C)s1` (stereo not shown) [drawing 104] gave a pest or weed control at 100 g/ha of 100%. In the case of `CC1=C(C(=O)Nc2ccc(F)cc2C(C)CC(C)C)SCCO1` (stereo not shown) [drawing 105], the pest or weed control at 100 g/ha is reported as 100%.

Tested on: Botrytis cinerea
Assay: Botrytis test (bean)/protective
Format: in vivo
Details: 48 h, bean plants, protective spray, 100 g/ha, evaluation two days after inoculation, read-out: Efficacy in %
Method: Botrytis Test (Bean)/Protective
as §3
(§4) To produce a suitable preparation of active compound, 1 part by weight of active compound is mixed with the stated amounts of solvent and emulsifier, and the concentrate is diluted with water to the desired concentration.
To test for protective activity, young plants are sprayed with the preparation of active compound at the stated application rate. After the spray coating has dried on, 2 small pieces of agar colonized by Botrytis cinerea are placed under each leaf. The inoculated plants are placed in a dark chamber at about 20° C. and 100% relative atmospheric humidity.
Two days after the inoculation, the size of the infected areas on the leaves is evaluated. 0% means an efficacy which corresponds to that of the control, whereas an efficacy of 100% means that no infection is observed.
`CC(C)CC(C)c1ccccc1NC(=O)c1scnc1Cl` (stereo not shown) [drawing 106] showed a pest or weed control at 100 g/ha of 99%. Compound `Cc1sccc1C(=O)Nc1ccccc1C(C)CC(C)C` (stereo not shown) [drawing 107] has a pest or weed control at 100 g/ha of 97%. In the case of `CC(C)CC(C)c1ccccc1NC(=O)c1cn(C)nc1Cl` (stereo not shown) [drawing 108], the pest or weed control at 100 g/ha is reported as 100%.

Same assay, conditions: 48 h, bean plants, protective spray, 500 g/ha, evaluation two days after inoculation, read-out: Efficacy in %
In the case of `CC(C)CC(C)c1ccccc1NC(=O)c1cn(C)nc1C(C)F` (stereo not shown) [drawing 109], the pest or weed control at 500 g/ha is reported as 99%. Work on `CC(C)CC(C)c1cc(F)ccc1NC(=O)c1cn(C)nc1C(F)(F)F` (stereo not shown) [drawing 110] yielded a pest or weed control at 500 g/ha of 99%. With `CC(C)CC(C)c1cc(F)ccc1NC(=O)c1cn(C)nc1C(F)F` (stereo not shown) [drawing 111] the pest or weed control at 500 g/ha was 100%. `Cc1sccc1C(=O)Nc1ccc(F)cc1C(C)CC(C)C` (stereo not shown) [drawing 112] showed a pest or weed control at 500 g/ha of 100%. In the case of `Cc1nc(C(F)(F)F)c(C(=O)Nc2ccc(F)cc2C(C)CC(C)C)s1` (stereo not shown) [drawing 113], the pest or weed control at 500 g/ha is reported as 100%. With `Cc1ccsc1C(=O)Nc1ccc(F)cc1C(C)CC(C)C` (stereo not shown) [drawing 114] the pest or weed control at 500 g/ha was 98%. For `Cc1nc(C(F)F)c(C(=O)Nc2ccc(F)cc2C(C)CC(C)C)s1` (stereo not shown) [drawing 115], the pest or weed control at 500 g/ha was 100%. With `CC1=C(C(=O)Nc2ccc(F)cc2C(C)CC(C)C)SCCO1` (stereo not shown) [drawing 116] the pest or weed control at 500 g/ha was 100%.

Tested on: Puccinia recondita
Assay: Puccinia test (wheat)/protective
Format: in vivo
Details: 240 h, wheat plants, protective spray, evaluation 10 days after inoculation, read-out: Efficacy in %
Method: Puccinia Test (Wheat)/Protective
Solvent: 50 parts by weight of N,N-dimethylacetamide
Emulsifier: 1 part by weight of alkylaryl polyglycol ether
as §4
To test for protective activity, young plants are sprayed with the preparation of active compound at the stated application rate. After the spray coating has dried on, the plants are sprayed with a conidia suspension of Puccinia recondita. The plants remain in an incubation cabinet at 20° C. and 100% relative atmospheric humidity for 48 hours.
The plants are then placed in a greenhouse at a temperature of about 20° C. and a relative atmospheric humidity of 80% to promote the development of rust pustules.
as §2
For `Cc1nc(Cl)sc1C(=O)Nc1ccccc1C(C)CC(C)C` (stereo not shown), the pest or weed control at 500 g/ha was 100%. `CC(C)CC(C)c1cc(F)ccc1NC(=O)c1cccnc1Cl` (stereo not shown) showed a pest or weed control at 500 g/ha of 100%. For `CC(C)CC(C)c1cc(F)ccc1NC(=O)c1cn(C)nc1Cl` (stereo not shown), the pest or weed control at 500 g/ha was 100%. With `Cc1occc1C(=O)Nc1ccc(F)cc1C(C)CC(C)C` (stereo not shown) the pest or weed control at 500 g/ha was 100%. `Cc1sccc1C(=O)Nc1ccccc1C(C)CC(C)C` (stereo not shown) [drawing 118] gave a pest or weed control at 500 g/ha of 100%. Compound `CC(C)CC(C)c1ccccc1NC(=O)c1ccoc1C(F)(F)F` (stereo not shown) [drawing 119] has a pest or weed control at 500 g/ha of 100%. `CC(C)CC(C)c1ccccc1NC(=O)c1cn(C)nc1Cl` (stereo not shown) [drawing 120] showed a pest or weed control at 500 g/ha of 100%. Compound `CC(C)CC(C)c1cc(F)ccc1NC(=O)c1cn(C)nc1C(F)(F)F` (stereo not shown) [drawing 121] has a pest or weed control at 500 g/ha of 100%. `CC(C)CC(C)c1cc(F)ccc1NC(=O)c1cn(C)nc1C(F)F` (stereo not shown) [drawing 124] gave a pest or weed control at 500 g/ha of 100%. For `Cc1sccc1C(=O)Nc1ccc(F)cc1C(C)CC(C)C` (stereo not shown) [drawing 125], the pest or weed control at 500 g/ha was 100%. For `Cc1nc(C(F)(F)F)c(C(=O)Nc2ccc(F)cc2C(C)CC(C)C)s1` (stereo not shown) [drawing 127], the pest or weed control at 500 g/ha was 100%. For `Cc1ccsc1C(=O)Nc1ccc(F)cc1C(C)CC(C)C` (stereo not shown) [drawing 128], the pest or weed control at 500 g/ha was 100%. In the case of `Cc1nc(C(F)F)c(C(=O)Nc2ccc(F)cc2C(C)CC(C)C)s1` (stereo not shown) [drawing 129], the pest or weed control at 500 g/ha is reported as 100%. `CC1=C(C(=O)Nc2ccc(F)cc2C(C)CC(C)C)SCCO1` (stereo not shown) [drawing 130] showed a pest or weed control at 500 g/ha of 100%.
